Data published in patent US20230330254A1 (Regeneron Pharmaceuticals, Inc., priority 2022, published 2023).
Where a SMILES comes first, the peptide text is derived from it. [ ]: non-standard residue; d: D form. The star is where a group is joined. Bip(2'-Et,4'-O(CH2)4NH2) = CCc1cc(OCCCCN)ccc1-c1ccc(C[C@H](N)C(=O)O)cc1; Malonyl(2,2-Me2,histaminyl) = CC(C)(C(=O)NCCc1cnc[nH]1)C(=O)*; Nva(5-(3,5-Me2Ph)) = Cc1cc(C)cc(CCC[C@H](N)C(=O)O)c1; Ala(1H-tetrazol-5-yl) = N[C@@H](Cc1nnn[nH]1)C(=O)O; αMePhe(2-F) = C[C@](N)(Cc1ccccc1F)C(=O)O

Experiments:
[1] = molecular target: T1, human GLP1R (Homo sapiens, UniProt P43220); test: CRE-luciferase reporter assay, HEK293/Myc-hGLP1R/Cre-Luc (Example 9); type: cell-based; design: engineered to express full-length human GLP1R, cynomolgus GLP1R; expressed in transfected cells; host or cells: HEK293/CRE-Luc
T1 sequence (P43220 24-463): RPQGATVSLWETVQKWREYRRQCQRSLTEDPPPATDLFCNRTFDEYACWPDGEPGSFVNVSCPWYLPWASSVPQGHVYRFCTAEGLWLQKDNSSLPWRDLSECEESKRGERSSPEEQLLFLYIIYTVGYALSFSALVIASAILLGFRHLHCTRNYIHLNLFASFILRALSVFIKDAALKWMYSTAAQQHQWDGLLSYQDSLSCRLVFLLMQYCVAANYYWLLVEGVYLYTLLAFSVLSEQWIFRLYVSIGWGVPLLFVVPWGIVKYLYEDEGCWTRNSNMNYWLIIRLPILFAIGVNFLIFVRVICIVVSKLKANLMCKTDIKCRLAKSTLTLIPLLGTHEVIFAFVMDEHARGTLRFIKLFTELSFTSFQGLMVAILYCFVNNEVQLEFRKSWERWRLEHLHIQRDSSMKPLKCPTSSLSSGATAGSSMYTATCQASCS
Protocol: To test the activity of GLP1R agonist payloads and GLP1R agonist linker-payloads (LPs) in vitro, a cell-based cAMP responsive luciferase reporter assay was developed.
Cells were incubated overnight at 37° C. in 5% CO2. […] Plates were incubated for 5.5 h at 37° C. in 5% CO2. For end-point measurement, 100 μL/well of One-Glo reagent (Promega, #E6051) was added and plates were kept at room temperature for 5-10 minutes. Luciferase activity was measured on Envision Multilabel Plate Reader (Perkin Elmer) in Luminescent mode. The relative light units (RLU) values were obtained and the results were analyzed using nonlinear regression with GraphPad Prism software (GraphPad).

[2] = molecular target: T1, human GLP1R; test: Luciferase reporter assay, HEK293/CRE-Luc/hGLP1R cells (Example 11); type: cell-based; design: engineered to express full-length human GLP1R, cynomolgus GLP1R; expressed in transfected cells; host or cells: HEK293/CRE-Luc; settings: Table 11; Experiment A
[3] = molecular target: T1, human GLP1R; test: Human GLP1R cAMP accumulation assay; type: cell-based; design: HEK293 cells over-expressing full length human GLP-1R were utilized; expressed in transfected cells; host or cells: HEK293 (HEK293/hGLP1R)
How it was run: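 cAMP accumulation measured after 30 min at 23° C, with 500 μM IBMX in HEPES-buffered HBSS plus 0.1% BSA, in HEK293 cells expressing full-length hGLP-1R. Levels read by D2-cAMP/antibody immunoassay via standard curve, scaled between low and high controls. EC50 fitted four-parameter over a 10-point curve.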

[4] = test system: HEK293/CRE-Luc cells; test: Luciferase reporter assay, HEK293/CRE-Luc cells without hGLP1R (Example 11); type: cell-based, human; settings: Table 11; Experiment A; no hGLP1R expression
How it was run: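 Counter-screen in HEK293 cells carrying CRE-driven firefly luciferase without hGLP1R; 3-fold serial dilutions of payloads or linker-payloads at 0.2% final DMSO, 4–6 h.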

[5] = test system: HEK293/CRE-Luc cells; test: Luciferase reporter assay, HEK293/CRE-Luc cells without GLP1R (Example 17); type: cell-based, human
How it was run: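 HEK293 cells carrying a CRE-driven firefly luciferase reporter were exposed to 3-fold serial dilutions of payloads or linker-payloads (12 points, 0.2% DMSO final) for 4–6 h, then luminescence was read. EC50 came from a four-parameter logistic fit; S/N is top RLU over untreated wells, and relative potency and S/N are referenced to M2361.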

[6] = HEK293/hGLP1R cells, Table 4, read-out: cAMP EC50
[7] = HEK293/CRE-Luc cells without hGLP1R, payloads and linker-payloads
[8] = HEK293/CRE-Luc cells without hGLP1R, payloads and linker-payloads, read-out: EC50

Structure (SMILES) | EC50 ([1]; Table 5C, read-out: GLP1R LUC EC50) [nM] | EC50 ([1]; Table 9, […], read-out: HEK293/Myc-hGLP1R/Cre-Luc EC50) [nM] | EC50 [2] [nM] | HEK293/CRE-LUC/hGLP1R Relative Potency (% P8 EC50) [2] [%] | HEK293/CRE-LUC/hGLP1R Relative Signal:Noise (% P8) [2] [%] | HEK293/CRE-LUC/hGLP1R S/N [2] | EC50 [3, 6] [nM] | EC50 ([3]; Table 5C, read-out: c-AMP EC50) [nM] | EC50 [4] [nM] | HEK293/CRE-LUC S/N [4] | S/N ([5]; HEK293/CRE-Luc cells without hGLP1R, ATDCs and references (Table 27)) | EC50 ([5]; HEK293/CRE-Luc cells without hGLP1R, ATDCs and references (Table 27), read-out: EC50) [nM] | S/N [5, 7] | EC50 [5, 8] [nM] | EC50 ([5]; Table 28, reporter cells without GLP1R, read-out: HEK293/CRE-Luc EC50) [nM] | EC50 ([5]; Table 29, reporter cells without GLP1R, read-out: HEK293/CRE-Luc EC50) [nM] | EC50 ([1]; Table 9, 5.5 h, read-out: HEK293/Myc-hGLP1R/Cre-Luc EC50) [nM]
CCc1cc(OCCCCn2cc(COCCOCCOCCOCCOCCOCCOCCOCCN)nn2)ccc1-c1ccc(C[C@H](NC(=O)[C@H](CC(=O)O)NC(=O)[C@H](CO)NC(=O)[C@@H](NC(=O)C(C)(Cc2ccccc2F)NC(=O)[C@@H](NC(=O)CNC(=O)[C@H](Cc2nn[nH]n2)NC(=O)C(C)(C)C(=O)NCCc2cnc[nH]2)[C@@H](C)O)[C@@H](C)O)C(=O)N[C@@H](CCCc2cc(C)cc(C)c2)C(N)=O)cc1 (stereo partly shown) [LP11, NH2-PEG8-triazole-P8] | 0.016 | 0.016 | 0.0161 | 33.1 | 113.3 | 74.5 | 0.318 | 0.318 | > 200 | 1.3 | – | – | – | – | – | – | –
CCc1cc(OCCCCn2cc(COCCOCCOCCOCCOCCOCCOCCOCCN)nn2)ccc1-c1ccc(C[C@H](NC(=O)[C@H](CC(=O)O)NC(=O)[C@H](CO)NC(=O)[C@@H](NC(=O)[C@](C)(Cc2ccccc2F)NC(=O)[C@@H](NC(=O)CNC(=O)[C@H](Cc2nn[nH]n2)NC(=O)C(C)(C)C(=O)NCCc2cnc[nH]2)[C@@H](C)O)[C@@H](C)O)C(=O)N[C@@H](CCCc2cc(C)cc(C)c2)C(N)=O)cc1 [M3190] | – | – | – | – | – | – | – | – | – | – | 1.3 | > 20 | 1.3 | > 200 | > 200 | > 30 | –
CCc1cc(OCCCCN)ccc1-c1ccc(C[C@H](NC(=O)[C@H](CC(=O)O)NC(=O)[C@H](CO)NC(=O)[C@@H](NC(=O)[C@](C)(Cc2ccccc2F)NC(=O)[C@@H](NC(=O)CNC(=O)[C@H](Cc2nn[nH]n2)NC(=O)C(C)(C)C(=O)NCCc2cnc[nH]2)[C@@H](C)O)[C@@H](C)O)C(=O)N[C@@H](CCCc2cc(C)cc(C)c2)C(N)=O)cc1 [P9, (8S,14S,17S,20S,23S,26S)-8-((2H-tetrazol-5-yl)methyl)-26-(((S)-1-(((S)-1-amino-5-(3,5-dimethylphenyl)-1-oxopentan-2-yl)amino)-3-(4′-(4-aminobutoxy)-2′-ethyl-[1,1′-biphenyl]-4-yl)-1-oxopropan-2-yl)carbamoyl)-17-(2-fluorobenzyl)-14,20-bis((R)-1-hydroxyethyl)-23-(hydroxymethyl)-1-(1H-imidazol-5-yl)-5,5,17-trimethyl-4,6,9,12,15,18,21,24-octaoxo-3,7,10,13,16,19,22,25-octaazaoctacosan-28-oic acid] ({Malonyl(2,2-Me2,histaminyl)}-[Ala(1H-tetrazol-5-yl)]GT[αMePhe(2-F)]TSD[Bip(2'-Et,4'-O(CH2)4NH2)][Nva(5-(3,5-Me2Ph))]-NH2) | – | – | 0.00397 | 133.8 | – | 75.2 | 0.05 | – | > 200 | 1.3 | – | – | 1.3 | > 200 | – | – | 0.00332
